Patent US5962314A, “Calcium receptor-active molecules” (priority 1997, dated 1999)
Entries after “also recorded” stand apart in the source; their conditions may differ.

Tests used:
C-cell calcium receptor = target: T1, C-cell calcium receptor (Rattus norvegicus, UniProt P48442); type: cell-based; conditions: Table 6; rMTC 6-23 cells, fura-2
T1 construct: Neoplastic C-cells derived from a rat medullary thyroid carcinoma (rMTC 6-23); host or cells: rMTC 6-23 cells
T1 sequence (P48442 20-1079): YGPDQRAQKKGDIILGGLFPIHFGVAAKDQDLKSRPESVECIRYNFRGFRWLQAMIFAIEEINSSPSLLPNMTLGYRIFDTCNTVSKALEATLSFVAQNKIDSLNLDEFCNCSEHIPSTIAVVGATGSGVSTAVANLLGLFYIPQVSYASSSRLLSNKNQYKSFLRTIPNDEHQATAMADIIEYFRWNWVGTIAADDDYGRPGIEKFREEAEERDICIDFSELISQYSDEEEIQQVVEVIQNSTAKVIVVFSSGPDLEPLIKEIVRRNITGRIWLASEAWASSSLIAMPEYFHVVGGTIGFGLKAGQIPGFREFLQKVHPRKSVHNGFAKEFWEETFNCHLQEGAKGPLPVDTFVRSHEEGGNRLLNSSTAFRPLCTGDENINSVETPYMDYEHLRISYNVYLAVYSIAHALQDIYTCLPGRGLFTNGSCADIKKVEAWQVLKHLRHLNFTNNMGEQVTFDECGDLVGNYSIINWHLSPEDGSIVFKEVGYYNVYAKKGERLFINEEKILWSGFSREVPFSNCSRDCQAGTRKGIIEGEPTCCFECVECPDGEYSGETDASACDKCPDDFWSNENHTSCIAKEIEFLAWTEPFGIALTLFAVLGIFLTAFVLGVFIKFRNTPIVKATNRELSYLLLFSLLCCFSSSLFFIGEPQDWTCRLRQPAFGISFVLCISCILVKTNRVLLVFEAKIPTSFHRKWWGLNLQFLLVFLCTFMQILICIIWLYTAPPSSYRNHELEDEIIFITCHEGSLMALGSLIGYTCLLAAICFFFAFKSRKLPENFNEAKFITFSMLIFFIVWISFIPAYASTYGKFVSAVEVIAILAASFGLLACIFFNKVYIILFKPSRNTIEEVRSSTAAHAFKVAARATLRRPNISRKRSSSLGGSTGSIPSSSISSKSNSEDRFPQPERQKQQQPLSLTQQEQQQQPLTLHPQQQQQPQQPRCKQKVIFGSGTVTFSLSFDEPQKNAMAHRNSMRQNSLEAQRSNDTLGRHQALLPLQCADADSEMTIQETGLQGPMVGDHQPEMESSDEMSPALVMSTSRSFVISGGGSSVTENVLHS
Source text: To assess the effects of molecular polycations on C-cells, a neoplastic cell line, derived from a rat medullary thyroid carcinoma (rMTC 6-23 cells) was used.

[1] = target: T2, human parathyroid cell calcium receptor (Homo sapiens, UniProt P41180); test: Cl- current in Xenopus oocytes expressing human parathyroid cell calcium receptor; type: cell-based
T2 construct: T7 cRNA injected into Xenopus oocytes
T2 sequence (P41180 with tags, fused parts or gaps INS536PLTFVLSVLQ/Q926R/E1011Q): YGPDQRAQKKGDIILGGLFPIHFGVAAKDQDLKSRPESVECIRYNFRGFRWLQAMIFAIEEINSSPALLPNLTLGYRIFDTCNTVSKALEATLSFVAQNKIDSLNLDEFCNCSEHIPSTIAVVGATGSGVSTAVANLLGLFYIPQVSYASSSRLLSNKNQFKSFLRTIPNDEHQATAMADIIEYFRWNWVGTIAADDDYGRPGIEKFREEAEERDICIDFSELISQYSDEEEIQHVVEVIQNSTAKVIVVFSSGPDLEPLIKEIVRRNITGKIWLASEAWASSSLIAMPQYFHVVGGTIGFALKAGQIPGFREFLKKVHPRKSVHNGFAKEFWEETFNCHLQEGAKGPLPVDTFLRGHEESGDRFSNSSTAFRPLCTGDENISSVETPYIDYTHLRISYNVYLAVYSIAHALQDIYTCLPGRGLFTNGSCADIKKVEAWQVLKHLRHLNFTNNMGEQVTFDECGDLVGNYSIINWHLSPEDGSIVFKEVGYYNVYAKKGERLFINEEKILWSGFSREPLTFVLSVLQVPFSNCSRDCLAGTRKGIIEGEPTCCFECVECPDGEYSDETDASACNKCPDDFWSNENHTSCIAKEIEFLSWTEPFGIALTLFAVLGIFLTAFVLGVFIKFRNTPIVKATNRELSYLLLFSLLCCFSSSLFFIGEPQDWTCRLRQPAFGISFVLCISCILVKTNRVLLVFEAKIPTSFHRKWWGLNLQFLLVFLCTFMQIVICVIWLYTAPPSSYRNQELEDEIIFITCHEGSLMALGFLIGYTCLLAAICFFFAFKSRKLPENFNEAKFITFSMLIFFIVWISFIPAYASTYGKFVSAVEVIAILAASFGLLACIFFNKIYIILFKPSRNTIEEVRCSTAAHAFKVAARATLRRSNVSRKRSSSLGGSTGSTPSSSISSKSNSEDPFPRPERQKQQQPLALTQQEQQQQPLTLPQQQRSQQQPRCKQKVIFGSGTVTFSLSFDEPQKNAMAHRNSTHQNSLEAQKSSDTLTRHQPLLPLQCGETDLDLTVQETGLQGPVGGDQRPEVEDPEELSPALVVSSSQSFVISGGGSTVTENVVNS
Method: Representative cDNA inserts for both size classes were subcloned into the plasmid vector pBluescript SK. Linearization followed by in vitro transcription using T7 RNA polymerase produced cRNA transcripts. The cRNA transcripts were injected into Xenopus oocytes (150 ng/μl RNA; 50 nl/oocyte) for functional analysis. Following incubation periods of 2-4 days, the oocytes were assayed for the presence of functional calcium receptors. Both clone types gave rise to functional calcium receptors as assessed by the stimulation of calcium-activated chloride currents upon addition of appropriate calcium receptor agonists. […] Thus, both clones encode a functional, human parathyroid cell calcium receptor.
Xenopus oocytes were injected with pHuPCaR 5.2, the 5.2 Kb cDNA encoding a parathyroid cell calcium receptor derived from a human parathyroid cell adenoma. (See Example 27.) After two to three days, Cl^- currents were measured in the oocytes using a two-electrode voltage clamp.

serum ionized calcium [2] = test: serum ionized Ca2+ in rats; type: in vivo, rat; conditions: NPS R-467 single oral dose, 3 hours
Method: Compounds shown to activate the bovine parathyroid cell calcium receptor in vitro were tested for hypocalcemic activity in vivo. Male Sprague-Dawley rats (200 g) were maintained on a low calcium diet for one week prior to receiving test substance or vehicle as control. Blood was collected from the tail vein three hours after the intra-peritoneal administration of NPS 467. […] Serum total calcium, albumin and phosphate were measured by techniques well known in the art.
Rats (male, Sprague-Dawley, 250-300 g) were fed standard rat chow and fasted overnight prior to the experiment. NPS R-467 was suspended in corn oil and administered as a single oral dose through a gavage needle. Three hours later a sample of blood was taken from the tail vein and assessed for ionized Ca^2+ levels.

[3] = system: human parathyroid calcium receptor; test: intracellular calcium in HEK293 cells stably transfected with human calcium receptor; type: cell-based; conditions: Ca2+ 10 mM; Mg2+ 20 mM; HuPCaR 5.2
Method: Different cells were tested for response to pure stereoisomers and racemic mixtures. […] Intracellular Ca^2+ was monitored using a fluorimeter. Each point on the graph represents the peak response (highest concentration of intracellular calcium achieved) to the addition of the indicated concentration of the indicated compound.
Cells obtained from the pool of hygromycin selected HEK293 cells transfected with Cep4B containing the HuPCaR 5.2 insert were plated on collagen coated Aklar squares which had been placed into individual wells of 12-well tissue culture plates. Two to six days later, medium was removed and the cells washed with balanced salt solution and 1 ml of buffer containing 1 μM fura2-AM, 1 mM CaCl2 and 0.1% BSA and 1 mM CaCl2. Measurements of fluorescence in response to calcium receptor agonists were performed at 37° C. in a spectrofluorimeter using excitation and emission wavelengths of 340 and 510 nm, respectively. For signal calibration, Fmax was determined after addition of ionomycin (40 μM) and the apparent Fmin was determined by addition of 0.3 M EGTA, 2.5 M Tris-HCl; pH 10.
Additional clonal isolates of HEK 293 cells transfected with pHuPCaR4.0 sequence were obtained. These were tested for responsiveness to calcimimetics as described above except that the cells were tested while in suspension. Similar positive results were obtained (FIG. 28b).

[4] = system: parathyroid cell calcium receptor; test: Cl- current in Xenopus oocytes injected with bovine parathyroid cell mRNA; type: cell-based; conditions: 30 μM; oocytes injected with parathyroid cell mRNA
Method: Following incubation, an oocyte was placed into a 100-μl plastic chamber and superfused with MBS at a flow rate of 0.5 ml/min using a peristaltic pump. Test molecules or inorganic polycations were added by rapidly moving the tubing into different buffers. Recording and current-passing electrodes were constructed from thin-wall capillary tubing pulled to a resistance of 1-3 Mohms and filled with 3 M KCl. […] Currents were recorded directly onto a strip chart recorder.

serum ionized calcium [5] = test: serum ionized Ca2+ in parathyroidectomized rats; type: in vivo, rat; conditions: NPS R-467 10 mg/kg i.p., 6 hours; NPS R-568 oral
Source text: To determine the primary target tissue upon which NPS R-467 acts to cause a hypocalcemic response, the parathyroid glands in rats were surgically removed. Animals receiving a total parathyroidectomy become hypocalcemic and are largely dependent upon dietary calcium to maintain serum Ca^2+ homeostasis.

COc1cccc([C@@H](C)NCCCc2ccccc2)c1 [NPS R-467, (R)-(+)-N-(3-phenylpropyl)-α-methyl-3-methoxybenzylamine]
EC50 (C-cell calcium receptor): 2.2 µM | activation of oocyte-expressed receptor [1]: activated the oocyte-expressed receptor at about the same concentrations | effect on serum ionized Ca2+, oral (serum ionized calcium [2]): lowers serum ionized calcium; also recorded: dose-dependent reduction in serum levels of ionized Ca^2+ | increase in intracellular calcium [3]: Robust increases in intracellular calcium | effect on Cl- current [4]: rapid increase in Cl^- | effect on serum ionized Ca2+ in parathyroidectomized rats (serum ionized calcium [5]): did not cause any change in serum ionized Ca^2+
